Source: PMC12693327, “SERAAK2 as a Serotonin Receptor Ligand: Structural and Pharmacological In Vitro and In Vivo Evaluation” (Molecules, 2025)
pIC50: −log10 of the molar value.

What was measured:
SH-SY5Y cells = assay: MTS cytotoxicity assay in SH-SY5Y cells; format: cell-based, human; conditions: 30 µM, 72 h
Method: The cytotoxic potential of SERAAK2 was evaluated in two human-derived cell lines chosen for their physiological relevance: HepG2 (hepatocellular carcinoma) and SH-SY5Y (neuroblastoma). […] It is particularly noteworthy that the use of the SERAAK2 compound at a concentration of 30 µM reduces the number of viable cells below the level of the positive control (doxorubicin) at the same concentration (Table 3). […] Under the experimental conditions used, after 72 h of incubation, a fraction of doxorubicin-treated cells remains metabolically active and generates a low signal in the MTS assay. The enhanced signal reduction observed in the MTS assay for the tested compound, compared to doxorubicin, indicates strong cytotoxic activity leading to necrosis of the entire cell population.
An assessment of the cytotoxic potential of SERAAK2 was carried out utilizing the colorimetric MTS assay. This investigation was executed on both HepG2 and SH-SY5Y cell lines, adhering to an identical procedure. The cell lines, sourced from the American Type Culture Collection (Manassas, VA, USA), were cultured under standard conditions (5% CO2, 37 °C) in DMEM/F12 medium (#31330-038, ThermoFisher Scientific, Waltham, MA, USA). The medium was supplemented with 10% Fetal Bovine Serum (FBS, #A5256801, ThermoFisher Scientific) and a Penicillin–Streptomycin solution (#15140-122, ThermoFisher Scientific) until their use in the study. Cells within passage numbers 15 to 25 were plated in 96-well plates at a density of 5000 cells per well in 200 μL of medium and allowed to adhere during a 24 h incubation at 37 °C with 5% CO2. […] The plates were then subsequently returned to the 37 °C incubator, after which absorbance was recorded with a Spark microplate reader; this measurement occurred after 1 h for the HepG2 line and 3 h for the SH-SY5Y line. The ultimate cell viability percentage was determined by comparing results to the control wells, which represented 100% viability, and the wells treated with 10 μM doxorubicin, which were defined as 0% viability. […]

CYP3A4 = molecular target: T1, CYP3A4 (Homo sapiens, UniProt P08684); parameters: method as in PMID 40430337; conditions: cited from earlier work
T1 construct: purchased Promega
T1 sequence (P08684 whole entry): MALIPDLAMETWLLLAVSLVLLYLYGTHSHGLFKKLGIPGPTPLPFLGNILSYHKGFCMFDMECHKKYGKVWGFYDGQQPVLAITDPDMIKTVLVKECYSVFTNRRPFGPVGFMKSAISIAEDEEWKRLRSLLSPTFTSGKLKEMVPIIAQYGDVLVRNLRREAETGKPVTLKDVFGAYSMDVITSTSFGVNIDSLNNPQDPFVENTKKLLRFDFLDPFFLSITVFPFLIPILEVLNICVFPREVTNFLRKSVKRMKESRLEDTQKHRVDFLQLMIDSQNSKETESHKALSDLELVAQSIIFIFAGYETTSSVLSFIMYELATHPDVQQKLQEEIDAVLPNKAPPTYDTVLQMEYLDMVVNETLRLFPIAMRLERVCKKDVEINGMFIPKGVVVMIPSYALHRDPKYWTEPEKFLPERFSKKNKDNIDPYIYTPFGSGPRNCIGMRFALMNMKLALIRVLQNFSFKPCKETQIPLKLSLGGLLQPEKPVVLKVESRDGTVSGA

[1] = parameters: method as in PMID 40430337; conditions: cited from earlier work
mice [2] = test system: mice; parameters: method as in PMID 40430337; conditions: 30–60 mg/kg; cited from earlier work
mice [3] = test system: mice; parameters: method as in PMID 40430337; conditions: 30–60 mg/kg, rotarod and chimney; cited from earlier work
mice [4] = test system: mice; parameters: method as in PMID 40430337; conditions: 30 mg/kg; cited from earlier work
mice [5] = test system: mice; parameters: method as in PMID 40430337; conditions: 30 mg/kg; cited from earlier work; remark: listed apart in the source
mice [6] = test system: mice; parameters: method as in PMID 40430337; conditions: 30 mg/kg; cited from earlier work; remark: listed apart in the source
CYP2D6 = CYP2D6 (Homo sapiens, UniProt P10635); parameters: purchased Promega; method as in PMID 40430337; conditions: cited from earlier work
Sequence of CYP2D6 (P10635 whole entry): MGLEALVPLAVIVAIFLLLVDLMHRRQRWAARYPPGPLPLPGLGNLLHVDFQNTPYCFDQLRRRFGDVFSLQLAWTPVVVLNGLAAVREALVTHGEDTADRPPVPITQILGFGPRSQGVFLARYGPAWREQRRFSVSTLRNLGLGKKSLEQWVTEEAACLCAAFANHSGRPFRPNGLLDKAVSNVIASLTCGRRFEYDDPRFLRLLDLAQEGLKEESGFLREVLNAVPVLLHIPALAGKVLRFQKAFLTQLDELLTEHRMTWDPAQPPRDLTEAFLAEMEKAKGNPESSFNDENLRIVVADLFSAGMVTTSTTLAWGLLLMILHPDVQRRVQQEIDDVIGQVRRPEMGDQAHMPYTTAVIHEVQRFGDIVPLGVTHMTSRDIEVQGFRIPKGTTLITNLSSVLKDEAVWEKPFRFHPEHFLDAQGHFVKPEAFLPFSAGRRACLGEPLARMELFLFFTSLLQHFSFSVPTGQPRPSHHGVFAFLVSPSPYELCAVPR

mice [7] = assay: Amphetamine-induced hyperactivity; format: in vivo; conditions: amphetamine 3 mg/kg, vs saline-treated group, p < 0.05
Method: The investigated compound (SER2AAK2) was bought from Enamine (purity over 95%) and in all tests was administered intraperitoneally (i.p.), spread in a drop of Tween 80, and diluted with an aqueous solution of 0.5% methylcellulose (tylose) and injected 60 min before the tests in a volume of 10 mL/kg. Control groups received tylose injections of the same volume and via the same route of administration.
Locomotor activity of the mice was assessed using the Opto-Varimex-4 Auto-Track system (Columbus Instruments, OH, USA). Each mouse was placed individually in a testing cage for 25 min—5 min for acclimatization, followed by 20 min of activity recording. (6a) The total distance traveled (in centimeters) was measured. Cages were cleaned with 10% ethanol between sessions.

COc1cccc2c1C(=O)c1c(O)c3c(c(O)c1C2=O)C[C@@](O)(C(=O)CO)C[C@@H]3O[C@H]1C[C@H](N)[C@H](O)[C@H](C)O1 [DOX, Doxorubicin, reference compound]
Percentage Reduction in the Number of Viable SH-SY5Y Cells [Mean ± SEM] (SH-SY5Y cells): 102 ± 1%

OC(COC(c1ccccc1)c1ccccc1)CN1CCN(C(c2ccccc2)c2ccccc2)CC1 (stereo not shown) [SERAAK1]
CYP3A4 induction (increase of activity) (CYP3A4): 3.5 fold | Pe (PAMPA) [1]: < 0.01 ×10⁻⁶ cm/s | Spontaneous locomotor activity (mice [2]): no change (30–60 mg/kg) | Motor coordination (rotarod, chimney) (mice [3]): no impairment (30–60 mg/kg)—stable motor profile | Elevated plus maze (EPM), open arm time and entries (mice [4]): ↑ open arm time and entries (30 mg/kg)—anxiolytic effect | Forced swim test (FST), immobility (mice [5]): ↓ immobility (30 mg/kg)—antidepressant-like effect connected with serotonergic modulation | amphetamine-induced hyperactivity (mice [6]): ↓ hyperactivity (30 mg/kg) | pIC50 (CYP2D6): 6.14

CC(N)Cc1ccccc1 (stereo not shown) [amphetamine, reference compound]
locomotor activity after amphetamine alone (mice [7]): significantly increased the locomotor activity
